Assay results published in patent US8642585B2, “Indanyloxydihydrobenzofuranylacetic acids” (Boehringer Ingelheim International GmbH, priority 2012, dated 2014).

These compounds were tested against human GPR40 receptor (Homo sapiens, UniProt O14842) (assay: Assay II: IP1 accumulation (IPOne HTRF) in 1321N1 cells stably expressing human GPR40). Conditions: 1321N1 cells expressing human GPR40, stimulation 1 h at 37° C., 5% CO2, LiCl 50 mM.
Assay type: cell-based
Procedure, shortened: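 1321N1 cells stably expressing human GPR40, seeded 24 h earlier, were stimulated with compound for 1 h at 37 °C in LiCl (50 mM) buffer, pH 7.4. IP1 measured by HTRF (665/615 ratio) after lysis and 1 h room temperature; pEC50 via IP1 reference curve and variable-slope sigmoidal fit.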

human GPR40 receptor, sequence (O14842 whole entry): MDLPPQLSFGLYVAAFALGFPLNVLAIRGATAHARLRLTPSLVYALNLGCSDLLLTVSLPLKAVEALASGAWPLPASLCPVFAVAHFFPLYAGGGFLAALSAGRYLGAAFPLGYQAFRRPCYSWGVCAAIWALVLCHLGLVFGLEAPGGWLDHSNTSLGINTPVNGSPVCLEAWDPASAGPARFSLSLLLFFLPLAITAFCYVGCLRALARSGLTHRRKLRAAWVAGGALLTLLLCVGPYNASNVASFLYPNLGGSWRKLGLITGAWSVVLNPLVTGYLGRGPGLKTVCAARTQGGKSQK

**Q.** How did the EC50 turn out when `COc1ccc(-c2cc(C)c(-c3ccc(F)c4c3CC[C@H]4Oc3ccc4c(c3)OC[C@H]4CC(=O)O)c(C)c2)cn1` [Example 126, {(S)-6-[(R)-4-(2,6-Dimethyl-4-(6-methoxy-pyridin-3-yl)-phenyl)-7-fluoro-indan-1-yloxy]-2,3-dihydro-benzofuran-3-yl}-acetic acid] was run?
**A.** The EC50 was 6 nM.

**Q.** Which EC50 does the source give for `O=C(O)C[C@@H]1COc2cc(O[C@@H]3CCc4c(-c5cccnc5N5CCCOCC5)ccc(F)c43)ccc21` [Example 127, {(S)-6-[(R)-7-Fluoro-4-(2-[1,4]oxazepan-4-yl-pyridin-3-yl)-indan-1-yloxy]-2,3-dihydro-benzofuran-3-yl}-acetic acid] here?
**A.** The EC50 was 48 nM.

**Q.** `O=C(O)C[C@@H]1COc2cc(O[C@@H]3CCc4c(-c5cccnc5N5CCOCC5)ccc(F)c43)ccc21` [Example 128, {(S)-6-[(R)-7-Fluoro-4-(2-morpholin-4-yl-pyridin-3-yl)-indan-1-yloxy]-2,3-dihydro-benzofuran-3-yl}-acetic acid] was tested. Which EC50 did it give?
**A.** Its EC50 is 288 nM.

**Q.** For `COc1cnnc(-c2cc(C)c(-c3ccc(F)c4c3CC[C@H]4Oc3ccc4c(c3)OC[C@H]4CC(=O)O)c(C)c2)c1` [Example 129, {(S)-6-[(R)-4-(2,6-Dimethyl-4-(5-methoxy-pyridazin-3-yl)-phenyl)-7-fluoro-indan-1-yloxy]-2,3-dihydro-benzofuran-3-yl}-acetic acid], which EC50 is on record?
**A.** The EC50 was 4 nM.

**Q.** With `Cc1cc(-c2cc(C)c(-c3ccc(F)c4c3CC[C@H]4Oc3ccc4c(c3)OC[C@H]4CC(=O)O)c(C)c2)cnn1` [Example 130, {(S)-6-[(R)-4-(2,6-Dimethyl-4-(6-methyl-pyridazin-4-yl)-phenyl)-7-fluoro-indan-1-yloxy]-2,3-dihydro-benzofuran-3-yl}-acetic acid] as the compound, how does the EC50 read?
**A.** Its EC50 is 5 nM.

**Q.** With `Cc1cc(-c2cn(C)c(C)n2)cc(C)c1-c1ccc(F)c2c1CC[C@H]2Oc1ccc2c(c1)OC[C@H]2CC(=O)O` [Example 131, {(S)-6-[(R)-4-(2,6-Dimethyl-4-(1,2-dimethyl-imidazol-4-yl)-phenyl)-7-fluoro-indan-1-yloxy]-2,3-dihydro-benzofuran-3-yl}-acetic acid] as the compound, how does the EC50 read?
**A.** Its EC50 is 2 nM.

**Q.** How did the EC50 turn out when `Cc1cc(-c2nccs2)cc(C)c1-c1ccc(F)c2c1CC[C@H]2Oc1ccc2c(c1)OC[C@H]2CC(=O)O` [Example 132, {(S)-6-[(R)-4-(2,6-Dimethyl-4-thiazol-2-yl-phenyl)-7-fluoro-indan-1-yloxy]-2,3-dihydro-benzofuran-3-yl}-acetic acid] was run?
**A.** The EC50 was 2 nM.

**Q.** How did the EC50 turn out when `Cc1cc(-c2cn(C)cn2)cc(C)c1-c1ccc(F)c2c1CC[C@H]2Oc1ccc2c(c1)OC[C@H]2CC(=O)O` [Example 133, {(S)-6-[(R)-4-(2,6-Dimethyl-4-(1-methyl-imidazol-4-yl)-phenyl)-7-fluoro-indan-1-yloxy]-2,3-dihydro-benzofuran-3-yl}-acetic acid] was run?
**A.** Its EC50 is 2 nM.

**Q.** How did the EC50 turn out when `Cc1nc(-c2cc(C)c(-c3ccc(F)c4c3CC[C@H]4Oc3ccc4c(c3)OC[C@H]4CC(=O)O)c(C)c2)no1` [Example 134, {(S)-6-[(R)-4-(2,6-Dimethyl-4-(5-methyl-[1,2,4]oxadiazol-3-yl)-phenyl)-7-fluoro-indan-1-yloxy]-2,3-dihydro-benzofuran-3-yl}-acetic acid] was run?
**A.** The EC50 was 3 nM.

**Q.** `COc1ccc(-c2cc(C)c(-c3ccc(F)c4c3CC[C@H]4Oc3ccc4c(c3)OC[C@H]4CC(=O)O)c(C)c2)nc1` [Example 135, {(S)-6-[(R)-4-(2,6-Dimethyl-4-(5-methoxy-pyridin-2-yl)-phenyl)-7-fluoro-indan-1-yloxy]-2,3-dihydro-benzofuran-3-yl}-acetic acid] was tested. Which EC50 did it give?
**A.** The EC50 was 7 nM.

**Q.** With `Cc1cc(-c2noc(C(C)(C)O)n2)cc(C)c1-c1ccc(F)c2c1CC[C@H]2Oc1ccc2c(c1)OC[C@H]2CC(=O)O` [Example 136, {(S)-6-[(R)-4-(2,6-Dimethyl-4-(5-[2-hydroxy-prop-2-yl]-[1,2,4]oxadiazol-3-yl)-phenyl)-7-fluoro-indan-1-yloxy]-2,3-dihydro-benzofuran-3-yl}-acetic acid] as the compound, how does the EC50 read?
**A.** The EC50 was 3 nM.

**Q.** For `Cc1cc(-c2ccccn2)cc(C)c1-c1ccc(F)c2c1CC[C@H]2Oc1ccc2c(c1)OC[C@H]2CC(=O)O` [Example 137, {(S)-6-[(R)-4-(2,6-Dimethyl-4-pyridin-2-yl-phenyl)-7-fluoro-indan-1-yloxy]-2,3-dihydro-benzofuran-3-yl}-acetic acid], which EC50 is on record?
**A.** Its EC50 is 2 nM.

**Q.** `Cc1cccnc1-c1cc(C)c(-c2ccc(F)c3c2CC[C@H]3Oc2ccc3c(c2)OC[C@H]3CC(=O)O)c(C)c1` [Example 138, {(S)-6-[(R)-4-(2,6-Dimethyl-4-(3-methyl-pyridin-2-yl)-phenyl)-7-fluoro-indan-1-yloxy]-2,3-dihydro-benzofuran-3-yl}-acetic acid] was tested. Which EC50 did it give?
**A.** The EC50 was 9 nM.

**Q.** `Cc1cccc(-c2cc(C)c(-c3ccc(F)c4c3CC[C@H]4Oc3ccc4c(c3)OC[C@H]4CC(=O)O)c(C)c2)n1` [Example 139, {(S)-6-[(R)-4-(2,6-Dimethyl-4-(6-methyl-pyridin-2-yl)-phenyl)-7-fluoro-indan-1-yloxy]-2,3-dihydro-benzofuran-3-yl}-acetic acid] was tested. Which EC50 did it give?
**A.** The EC50 was 2 nM.

**Q.** For `Cc1ccnc(-c2cc(C)c(-c3ccc(F)c4c3CC[C@H]4Oc3ccc4c(c3)OC[C@H]4CC(=O)O)c(C)c2)c1` [Example 140, {(S)-6-[(R)-4-(2,6-Dimethyl-4-(4-methyl-pyridin-2-yl)-phenyl)-7-fluoro-indan-1-yloxy]-2,3-dihydro-benzofuran-3-yl}-acetic acid], which EC50 is on record?
**A.** Its EC50 is 2 nM.

**Q.** For `Cc1cc(C)nc(-c2cc(C)c(-c3ccc(F)c4c3CC[C@H]4Oc3ccc4c(c3)OC[C@H]4CC(=O)O)c(C)c2)c1` [Example 141, {(S)-6-[(R)-4-(2,6-Dimethyl-4-(4,6-dimethyl-pyridin-2-yl)-phenyl)-7-fluoro-indan-1-yloxy]-2,3-dihydro-benzofuran-3-yl}-acetic acid], which EC50 is on record?
**A.** Its EC50 is 3 nM.

**Q.** `Cc1cn(C)c(-c2cc(C)c(-c3ccc(F)c4c3CC[C@H]4Oc3ccc4c(c3)OC[C@H]4CC(=O)O)c(C)c2)n1` [Example 142, {(S)-6-[(R)-4-(2,6-Dimethyl-4-(1,4-dimethyl-imidazol-2-yl)-phenyl)-7-fluoro-indan-1-yloxy]-2,3-dihydro-benzofuran-3-yl}-acetic acid] was tested. Which EC50 did it give?
**A.** Its EC50 is 16 nM.

**Q.** How did the EC50 turn out when `Cc1ccc(-c2cc(C)c(-c3ccc(F)c4c3CC[C@H]4Oc3ccc4c(c3)OC[C@H]4CC(=O)O)c(C)c2)nc1` [Example 143, {(S)-6-[(R)-4-(2,6-Dimethyl-4-(5-methyl-pyridin-2-yl)-phenyl)-7-fluoro-indan-1-yloxy]-2,3-dihydro-benzofuran-3-yl}-acetic acid] was run?
**A.** Its EC50 is 3 nM.

**Q.** `Cc1cc(-c2nccn2C)cc(C)c1-c1ccc(F)c2c1CC[C@H]2Oc1ccc2c(c1)OC[C@H]2CC(=O)O` [Example 144, {(S)-6-[(R)-4-(2,6-Dimethyl-4-(1-methyl-imidazol-2-yl)-phenyl)-7-fluoro-indan-1-yloxy]-2,3-dihydro-benzofuran-3-yl}-acetic acid] was tested. Which EC50 did it give?
**A.** Its EC50 is 17 nM.

**Q.** `Cc1cc(OCc2ccn(C)n2)cc(C)c1-c1ccc(F)c2c1CC[C@H]2Oc1ccc2c(c1)OC[C@H]2CC(=O)O` [Example 145, 2-((S)-6-((R)-4-(2,6-dimethyl-4-((1-methyl-1H-pyrazol-3-yl)methoxy)phenyl)-7-fluoro-2,3-dihydro-1H-inden-1-yloxy)-2,3-dihydrobenzofuran-3-yl)acetic acid] was tested. Which EC50 did it give?
**A.** The EC50 was 15 nM.

**Q.** Which EC50 does the source give for `Cc1cc(OCc2ccn(C)c(=O)c2)cc(C)c1-c1ccc(F)c2c1CC[C@H]2Oc1ccc2c(c1)OC[C@H]2CC(=O)O` [Example 146, 2-((S)-6-((R)-4-(2,6-dimethyl-4-((1-methyl-2-oxo-1,2-dihydropyridin-4-yl)methoxy)phenyl)-7-fluoro-2,3-dihydro-1H-inden-1-yloxy)-2,3-dihydrobenzofuran-3-yl)acetic acid] here?
**A.** Its EC50 is 7 nM.

**Q.** How did the EC50 turn out when `Cc1cc(OCc2ncco2)cc(C)c1-c1ccc(F)c2c1CC[C@H]2Oc1ccc2c(c1)OC[C@H]2CC(=O)O` [Example 148, 2-((S)-6-((R)-4-(2,6-dimethyl-4-(oxazol-2-ylmethoxy)phenyl)-7-fluoro-2,3-dihydro-1H-inden-1-yloxy)-2,3-dihydrobenzofuran-3-yl)acetic acid] was run?
**A.** Its EC50 is 13 nM.

**Q.** How did the EC50 turn out when `Cc1cc(OCc2nccn2C)cc(C)c1-c1ccc(F)c2c1CC[C@H]2Oc1ccc2c(c1)OC[C@H]2CC(=O)O` [Example 149, 2-((S)-6-((R)-4-(2,6-dimethyl-4-((1-methyl-1H-imidazol-2-yl)methoxy)phenyl)-7-fluoro-2,3-dihydro-1H-inden-1-yloxy)-2,3-dihydrobenzofuran-3-yl)acetic acid] was run?
**A.** Its EC50 is 12 nM.

**Q.** For `Cc1cc(OCC2CCOCC2)cc(C)c1-c1ccc(F)c2c1CC[C@H]2Oc1ccc2c(c1)OC[C@H]2CC(=O)O` [Example 150, 2-((S)-6-((R)-4-(2,6-dimethyl-4-((tetrahydro-2H-pyran-4-yl)methoxy)phenyl)-7-fluoro-2,3-dihydro-1H-inden-1-yloxy)-2,3-dihydrobenzofuran-3-yl)acetic acid], which EC50 is on record?
**A.** The EC50 was 6 nM.

**Q.** How did the EC50 turn out when `Cc1cc(OCc2cnn(C)c2)cc(C)c1-c1ccc(F)c2c1CC[C@H]2Oc1ccc2c(c1)OC[C@H]2CC(=O)O` [Example 152, 2-((S)-6-((R)-4-(2,6-dimethyl-4-((1-methyl-1H-pyrazol-4-yl)methoxy)phenyl)-7-fluoro-2,3-dihydro-1H-inden-1-yloxy)-2,3-dihydrobenzofuran-3-yl)acetic acid] was run?
**A.** The EC50 was 19 nM.

**Q.** For “((S)-6-{(R)-4-[4-((R)-1,1-Dioxo- tetrahydro-1-thiophen-3- ylmethoxy)-2,6-dimethyl- phenyl]-7-fluoro-indan-1- yloxy}-2,3-dihydro-benzofuran- 3-yl)-acetic acid [Example 47]”, which EC50 is on record?
**A.** Its EC50 is 8 nM.
